# Source: US20250009745A1, “CDK INHIBITOR” (SHANGHAI QILU PHARMACEUTICAL RESEARCH AND DEVELOPMENT …, priority 2021, published 2025)
# How the values were obtained:
# Assay in all cases: CDK enzymology experiment in vitro, capillary mobility shift assay (MSA)
# Format in all cases: biochemical
# CDK4 = target: T1, CDK4 (Homo sapiens, UniProt P11802); conditions: read-out: CDK4 (nM) inhibitory IC50
# T1 construct: purchased Carna Company
# Description: (§1) CDK1/CDK2/CDK4/CDK6/CDK7/CDK9 were purchased from Carna Company; Carliper substrate CTD3/substrate 18/substrate 8 were purchased from Gil Biochemical Company; Dinaciclib/Palbociclib were purchased from Selleckchem Company; DMSO was purchased from Sigma Company; 384-well plates were purchased from Corning Company.
# (§2) • (1) Preparation of 1×Kinase buffer. • (2) Preparation of compound concentration gradient: Test concentration of the test compound was started at 1 μM, 10 μM or 30 μM, 3-fold dilution, 10 concentrations, detected in duplicate. The test compound was diluted to a 100-fold final concentration with 100% DMSO solution in a 384 source plate. Liquid handler Echo 550 was used to transfer 250 nL of 100-fold final concentration of the compound to the target plate 384-well plate. […] The 384-well plate was centrifuged at 1000 rpm for 30 seconds, and shaken to mix uniformly. • (10) The conversion rate was read with Caliper EZ Reader.
# (§3) Where, conversion %_sample is the readings of conversion rate of the sample; conversion %_min: the average value of negative control wells, representing the readings of conversion rate of wells without enzyme activity; conversion %_max: the average value of positive control wells, representing the readings of conversion rate of wells without compound inhibition.
# (§4) Taking the log value of the concentration as the X-axis, and the percentage inhibition rate as the Y-axis, the dose-effect curve was fitted using the log(inhibitor) vs. response—Variable slope of the analysis software GraphPad Prism 5 so as to obtain the IC50 value of each compound on the enzyme activity.
# (§5) Y=Bottom+(Top−Bottom)/(1+10^((Log IC50−X)*HillSlope)). Calculation formula: […]
# CDK2 = target: T2, CDK2 (Homo sapiens, UniProt P24941); conditions: read-out: CDK2 (nM) inhibitory IC50
# T2 construct: purchased Carna Company
# Description: as §1, §2, §3, §4, §5
# CDK6 = target: T3, CDK6 (Homo sapiens, UniProt Q00534); conditions: read-out: CDK6 (nM) inhibitory IC50
# T3 construct: purchased Carna Company
# T3 sequence (Q00534 whole entry): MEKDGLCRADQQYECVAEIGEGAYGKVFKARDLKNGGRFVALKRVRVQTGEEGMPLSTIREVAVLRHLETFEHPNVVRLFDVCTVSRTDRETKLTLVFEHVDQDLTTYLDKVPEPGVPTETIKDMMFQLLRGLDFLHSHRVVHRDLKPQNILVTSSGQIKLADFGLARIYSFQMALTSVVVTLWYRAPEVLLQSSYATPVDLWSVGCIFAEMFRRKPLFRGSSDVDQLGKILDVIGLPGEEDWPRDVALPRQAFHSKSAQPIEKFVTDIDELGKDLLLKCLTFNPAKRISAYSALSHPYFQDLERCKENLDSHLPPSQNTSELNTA
# T3 sequence (P30281 whole entry partner): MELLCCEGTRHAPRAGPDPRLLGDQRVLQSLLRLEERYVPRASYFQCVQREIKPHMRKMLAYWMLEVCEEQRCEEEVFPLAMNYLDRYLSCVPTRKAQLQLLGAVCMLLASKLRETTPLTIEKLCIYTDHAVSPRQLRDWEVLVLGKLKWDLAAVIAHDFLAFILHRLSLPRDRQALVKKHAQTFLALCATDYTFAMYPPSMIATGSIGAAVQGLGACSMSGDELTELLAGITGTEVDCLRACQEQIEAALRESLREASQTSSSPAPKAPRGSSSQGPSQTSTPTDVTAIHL
# Description: as §1
# as §2, with “The test compound was diluted to a 100-fold final concentration with 100% DMSO solution in a 384 source plate.” left out
# as §3, §4, §5
# T1 sequence (P11802 whole entry): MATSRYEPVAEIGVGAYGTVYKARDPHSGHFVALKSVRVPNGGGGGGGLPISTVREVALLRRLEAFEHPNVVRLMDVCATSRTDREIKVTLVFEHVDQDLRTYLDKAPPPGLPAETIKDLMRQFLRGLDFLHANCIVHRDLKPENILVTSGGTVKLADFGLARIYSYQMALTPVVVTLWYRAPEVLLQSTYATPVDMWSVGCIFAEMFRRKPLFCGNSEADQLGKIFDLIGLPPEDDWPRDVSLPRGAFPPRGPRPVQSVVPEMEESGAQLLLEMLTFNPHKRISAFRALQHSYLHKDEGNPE
# T1 sequence (P30281 whole entry partner): as the sequence (P30281 whole entry partner) above
SMILES,IC50 (CDK4) [nM],IC50 (CDK2) [nM],IC50 (CDK6) [nM]
"Cn1cc(-c2ccc(S(=O)(=O)N3CCC(Nc4ncc(C#N)c(N[C@H]5CC[C@@H](O)C5)n4)CC3)cc2)cn1 (single isomer, unassigned) [Compound 86]",0.5 to 2.5,< 0.5,0.5 to 2.5
C[C@@H]1CN(c2ccc(S(=O)(=O)N3CCC(Nc4ncc(C(F)(F)F)c(O[C@@H]5CCOC5)n4)CC3)cc2)C[C@H](C)N1 [Compound 210],10 to 50,0.5 to 2.5,2.5 to 10
"CN1CCC(c2ccc(S(=O)(=O)N3CCC(Nc4ncc(C#N)c(NC5CCCC5)n4)CC3)cc2)CC1 [Example 17, 4-(Cyclopentylamino)-2-((1-((4-(1-methylpiperidin-4-yl)phenyl)sulfonyl)piperidin-4-yl)amino)pyrimidine-5-carbonitrile]",0.5 to 2.5,0.5 to 2.5,0.5 to 2.5
O=S(=O)(c1ccc(C2=CCNCC2)cc1)N1CCC(Nc2ncc(C(F)(F)F)c(NC3CCCC3(F)F)n2)CC1 (stereo not drawn) [Compound 136],2.5 to 10,0.5 to 2.5,0.5 to 2.5
O=S(=O)(c1cnn(C2CCNCC2)c1)N1CCC(Nc2ncc(C(F)(F)F)c(O[C@H]3CCOC3)n2)CC1 [Compound 119],0.5 to 2.5,< 0.5,0.5 to 2.5
N#Cc1cnc(NC2CCN(S(=O)(=O)c3ccc(C4=CCNCC4)cc3)CC2)nc1O[C@H]1CCOC1 [Compound 104],2.5 to 10,0.5 to 2.5,0.5 to 2.5
"CN1CC=C(c2ccc(S(=O)(=O)N3CCC(Nc4ncc(C#N)c(NC5CCCC5)n4)CC3)cc2)CC1 [Example 16, 4-(Cyclopentylamino)-2-((1-((4-(1-methyl-1,2,3,6-tetrahydropyridin-4-yl)phenyl)sulfonyl)piperidin-4-yl)amino)pyrimidine-5-carbonitrile]",0.5 to 2.5,0.5 to 2.5,0.5 to 2.5
N#CC1CCN(c2ccc(S(=O)(=O)N3CCC(Nc4ncc(C(F)(F)F)c(O[C@H]5CCOC5)n4)CC3)cc2)CC1 [Compound 143],2.5 to 10,0.5 to 2.5,10 to 50
Cn1cc(S(=O)(=O)N2CCC(Nc3ncc(C#N)c(NC4(C)CCCC4)n3)CC2)cn1 [Compound 118],0.5 to 2.5,0.5 to 2.5,0.5 to 2.5
N#Cc1cnc(NC2CCN(S(=O)(=O)c3ccc(N4CCOCC4)cc3)CC2)nc1NC1CCCC1 [Compound 94],2.5 to 10,0.5 to 2.5,10 to 50
O=S(=O)(c1ccc(C2CCNCC2)cc1)N1CCC(Nc2ncc(C(F)(F)F)c(NC3CCCC3(F)F)n2)CC1 (stereo not drawn) [Compound 137],0.5 to 2.5,0.5 to 2.5,0.5 to 2.5

# Now from value to compound:
IC50 (CDK4) [nM],IC50 (CDK2) [nM],IC50 (CDK6) [nM],SMILES
< 0.5,< 0.5,0.5 to 2.5,CN1CC=C(c2ccc(S(=O)(=O)N3CCC(Nc4ncc(C(F)(F)F)c(O[C@H]5CCOC5)n4)CC3)cc2)CC1 [Compound 203]
0.5 to 2.5,< 0.5,0.5 to 2.5,O=S(=O)(c1ccc(C2CCNCC2)cn1)N1CCC(Nc2ncc(C(F)(F)F)c(O[C@H]3CCOC3)n2)CC1 [Compound 177]
2.5 to 10,< 0.5,10 to 50,O=S(=O)(c1cccc(N2CCNCC2)c1)N1CCC(Nc2ncc(C(F)(F)F)c(O[C@H]3CCOC3)n2)CC1 [Compound 184]
0.5 to 2.5,< 0.5,0.5 to 2.5,C[C@@H]1CN(c2ccc(S(=O)(=O)N3CCC(Nc4ncc(C(F)(F)F)c(O[C@H]5CCOC5)n4)CC3)cn2)CCN1 [Compound 187]
0.5 to 2.5,< 0.5,0.5 to 2.5,O=S(=O)(c1ccc(N2CC3CNCC3C2)nc1)N1CCC(Nc2ncc(C(F)(F)F)c(O[C@H]3CCOC3)n2)CC1 (stereo partly drawn) [Compound 190]
2.5 to 10,0.5 to 2.5,0.5 to 2.5,C[C@@H]1CN(c2ccc(S(=O)(=O)N3CCC(Nc4ncc(C(F)(F)F)c(O[C@H]5CCOC5)n4)CC3)cn2)C[C@@H](C)N1 [Compound 207]
0.5 to 2.5,0.5 to 2.5,0.5 to 2.5,N#Cc1cnc(NC2CCN(S(=O)(=O)c3ccc(C4CCNCC4)cc3)CC2)nc1NC1CCCC1 [Compound 101]
